Several values for one entry are separate records, joined by “and”; a condition that tells them apart may be missing. Equal values may be shown once.
Columns and labels:
Mus musculus [1] = assay: Retention time in (R)-PIA) induced avoidance test (performed in mice) for antagonistic activity after peroral administration of 5 mg/kg; assay type: functional, organism-based; design: dose 5 mg/kg
Rattus norvegicus [2] = assay: Retention time in Scopolamine induced avoidance test (performed in rat) for antagonistic activity after p.o. administration of 0.08 mg/kg; assay type: functional, organism-based; design: dose 0.08 mg/kg
Mus musculus [3] = assay: Retention time in (R)-PIA) induced avoidance test (performed in mice) for antagonistic activity after p.o. administration of 1.25 mg/kg; assay type: functional, organism-based; design: dose 1.25 mg/kg
Rattus norvegicus [4] = assay: Retention time in Scopolamine induced avoidance test (performed in rat) for antagonistic activity after peroral administration of 20 mg/kg (n=19); assay type: functional, organism-based; design: dose 20 mg/kg
Rattus norvegicus [5] = assay: Acquisition time in Scopolamine induced avoidance test (performed in rat) for antagonistic activity after peroral administration of 1.25 mg/kg (n=20); assay type: functional; settings: route oral
Mus musculus [6] = assay: Acquisition time in (R)-PIA) induced avoidance test (performed in mice) for antagonistic activity after p.o. administration of 1.25 mg/kg; assay type: functional; settings: route oral
Rattus norvegicus [7] = assay: Acquisition time in Scopolamine induced avoidance test (performed in rat) for antagonistic activity after p.o. administration of 0.08 mg/kg; assay type: functional; settings: route oral
Rattus norvegicus [8] = assay: Acquisition time in Scopolamine induced avoidance test (performed in rat) for antagonistic activity after p.o. administration of 0.31 mg/kg; assay type: functional; settings: route oral
Rattus norvegicus [9] = assay: Retention time in Scopolamine induced avoidance test (performed in rat) for antagonistic activity after p.o. administration of 0.31 mg/kg; assay type: functional, organism-based; design: dose 0.31 mg/kg
Adenosine A2 receptor [10] = biological target: Adenosine A2 receptor (Rattus norvegicus, UniProt P29276+P30543); assay: Binding affinity at Adenosine A2 receptor from rat striatal membranes by N-[3H] ethyladenosin-5'- uronamide displacement.
Mus musculus [11] = assay: Acquisition time in (R)-PIA) induced avoidance test (performed in mice) for antagonistic activity after p.o. administration of 0.31 mg/kg; assay type: functional; settings: route oral
Mus musculus [12] = assay: Acquisition time in (R)-PIA) induced avoidance test (performed in mice) for antagonistic activity after peroral administration of 5 mg/kg; assay type: functional; settings: route oral
Mus musculus [13] = assay: Retention time in (R)-PIA) induced avoidance test (performed in mice) for antagonistic activity after peroral administration of 0.02 mg/kg
Mus musculus [14] = assay: Retention time in (R)-PIA) induced avoidance test (performed in mice) for antagonistic activity after peroral administration of 0.31 mg/kg; assay type: functional, organism-based; design: dose 0.31 mg/kg
Rattus norvegicus [15] = assay: Retention time in Scopolamine induced avoidance test (performed in rat) for antagonistic activity after peroral administration of 1.25 mg/kg; assay type: functional, organism-based; design: dose 1.25 mg/kg
Rattus norvegicus [16] = assay: Acquisition time in Scopolamine induced avoidance test (performed in rat) for antagonistic activity after peroral administration of 20 mg/kg; assay type: functional; settings: route oral
Mus musculus [17] = assay: Acquisition time in (R)-PIA) induced avoidance test (performed in mice) for antagonistic activity after peroral administration of 0.08 mg/kg; assay type: functional; settings: route oral
Rattus norvegicus [18] = assay: Acquisition time in Scopolamine induced avoidance test (performed in rat) for antagonistic activity after p.o. administration of 5 mg/kg; assay type: functional; settings: route oral
Mus musculus [19] = assay: Retention time in (R)-PIA) induced avoidance test (performed in mice) for antagonistic activity after peroral administration of 0.08 mg/kg; assay type: functional, organism-based; design: dose 0.08 mg/kg
Rattus norvegicus [20] = assay: Retention time in Scopolamine induced avoidance test (performed in […]) for antagonistic activity after peroral administration of 5 mg/kg; assay type: functional, organism-based; design: dose 5 mg/kg
Mus musculus [21] = assay: Acquisition time in (R)-PIA) induced avoidance test (performed in mice) for antagonistic activity after peroral administration of 0.02 mg/kg; settings: route oral
Rattus norvegicus [22] = assay: Acquisition time in Scopolamine induced avoidance test (performed in rat) for antagonistic activity after peroral administration of 0.02 mg/kg; assay type: functional; settings: route oral
Rattus norvegicus [23] = assay: Acquisition time in Scopolamine induced avoidance test (performed in rat) for antagonistic activity after peroral administration of 1.25 mg/kg (n=12); assay type: functional; settings: route oral
Mus musculus [24] = assay: Tested for locomotor activity after oral administration of […] for 120 min; assay type: functional
Mus musculus [25] = assay: Tested for locomotor activity after oral administration of 10 mg/kg for 120 min; assay type: functional
Mus musculus [26] = assay: Tested for locomotor activity after oral administration of 40 mg/kg for 120 min; assay type: functional
Rattus norvegicus [27] = assay: Retention time in Scopolamine induced avoidance test (performed in rat) for antagonistic activity after peroral administration of 5 mg/kg; assay type: functional, organism-based; design: dose 5 mg/kg
Mus musculus [28] = assay: Retention time in (R)-PIA) induced avoidance test (performed in mice) for antagonistic activity after peroral administration of 20 mg/kg (n=15) (P<0.005); assay type: functional, organism-based; design: dose 20 mg/kg
Rattus norvegicus [29] = assay: Retention time in Scopolamine induced avoidance test (performed in […]) for antagonistic activity after peroral administration of 1.25 mg/kg (n=12) (P<0.01); assay type: functional, organism-based; design: dose 1.25 mg/kg
Mus musculus [30] = assay: Acquisition time in (R)-PIA) induced avoidance test (performed in mice) for antagonistic activity after peroral administration of 20 mg/kg (n=15); assay type: functional; settings: route oral
Adenosine A2 receptor [31] = biological target: Adenosine A2 receptor (Homo sapiens, UniProt P29275+P29274); assay: Binding affinity against Adenosine A2 receptor from human platelets with [125I]-N6-aminobenzyladenosine
Rattus norvegicus [32] = assay: Retention time in Scopolamine induced avoidance test (performed in rat) for antagonistic activity after peroral administration of 0.02 mg/kg; assay type: functional, organism-based; design: dose 0.02 mg/kg
Mus musculus [33] = assay: Acquisition time in (R)-PIA) induced avoidance test (performed in mice) for antagonistic activity after peroral administration of 0.31 mg/kg (n=15); assay type: functional; settings: route oral
Rattus norvegicus [34] = assay: Acquisition time in Scopolamine induced avoidance test (performed in rat) for antagonistic activity after peroral administration of 0.02 mg/kg; settings: route oral
Rattus norvegicus [35] = assay: Acquisition time in Scopolamine induced avoidance test (performed in rat) for antagonistic activity after peroral administration of 0.31 mg/kg (n=15); assay type: functional; settings: route oral
Rattus norvegicus [36] = assay: Retention time in Scopolamine induced avoidance test (performed in rat) for antagonistic activity after peroral administration of 20 mg/kg (n=14); assay type: functional, organism-based; design: dose 20 mg/kg
Mus musculus [37] = assay: Retention time in (R)-PIA) induced avoidance test (performed in mice) for antagonistic activity after peroral administration of 0.31 mg/kg (n=15) (P<0.005); assay type: functional, organism-based; design: dose 0.31 mg/kg
Rattus norvegicus [38] = assay: Acquisition time in Scopolamine induced avoidance test (performed in rat) for antagonistic activity after peroral administration of 1.25 mg/kg; assay type: functional; settings: route oral
Rattus norvegicus [39] = assay: Retention time in Scopolamine induced avoidance test (performed in rat) for antagonistic activity after peroral administration of 0.31 mg/kg (n=15); assay type: functional, organism-based; design: dose 0.31 mg/kg
Adenosine receptor A1 = biological target: T1, Adenosine receptor A1 (Cavia porcellus, UniProt P47745); assay: Binding affinity against Adenosine A1 receptor from guinea pig forebrain membranes by N6-[3H]- cyclohexyladenosine displacement.
T1 sequence (P47745 whole entry): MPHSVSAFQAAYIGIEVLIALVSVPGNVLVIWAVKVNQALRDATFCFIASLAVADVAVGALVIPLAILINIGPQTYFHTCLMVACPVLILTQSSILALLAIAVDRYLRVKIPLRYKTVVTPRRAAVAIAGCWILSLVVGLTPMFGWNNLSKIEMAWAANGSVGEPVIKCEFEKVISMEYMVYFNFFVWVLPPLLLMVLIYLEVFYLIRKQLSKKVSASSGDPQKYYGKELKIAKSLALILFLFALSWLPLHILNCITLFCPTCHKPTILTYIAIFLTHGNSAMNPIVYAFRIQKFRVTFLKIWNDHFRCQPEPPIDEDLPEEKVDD

[40] = biological target: Adenosine receptor A1, Rattus norvegicus (UniProt P25099); assay: Binding affinity against Adenosine A1 receptor from rat forebrain membranes with N6-[3H]- cyclohexyladenosine
Sequence of Adenosine receptor A1, Rattus norvegicus (P25099 whole entry, looked up): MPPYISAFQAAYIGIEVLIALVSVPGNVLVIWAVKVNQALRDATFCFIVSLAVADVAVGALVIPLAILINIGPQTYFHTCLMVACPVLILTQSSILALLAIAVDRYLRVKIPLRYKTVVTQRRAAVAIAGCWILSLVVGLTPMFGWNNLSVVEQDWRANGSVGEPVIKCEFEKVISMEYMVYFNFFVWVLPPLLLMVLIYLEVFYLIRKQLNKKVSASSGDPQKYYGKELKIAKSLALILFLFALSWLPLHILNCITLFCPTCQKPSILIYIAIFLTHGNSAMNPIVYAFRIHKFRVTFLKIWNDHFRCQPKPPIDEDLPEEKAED

Row | SMILES | Retention time (Mus musculus [1]) [s] | Retention time (Rattus norvegicus [2]) [s] | Retention time (Mus musculus [3]) | Acquisition time (Mus musculus [6]) [s] | Acquisition time (Rattus norvegicus [7]) [s] | Acquisition time (Rattus norvegicus [8]) [s] | Retention time (Rattus norvegicus [9]) [s] | Ki (Adenosine A2 receptor [10]) [nM] | Acquisition time (Mus musculus [12]) [s] | Retention time (Mus musculus [14]) [s] | Retention time (Rattus norvegicus [15]) [s] | Acquisition time (Rattus norvegicus [16]) [s] | Acquisition time (Mus musculus [17]) [s] | Acquisition time (Rattus norvegicus [18]) [s] | Retention time (Mus musculus [19]) [s] | Retention time (Rattus norvegicus [20]) [s] | Retention time (Rattus norvegicus [32]) [s] | further results
1 | CCCn1c(=O)c2nc(C3CCC(=O)C3)[nH]c2n(CCc2ccc(N)cc2)c1=O (centres undefined) | 67.7 | 119 | 19.1 s | 14.6 | 10.5 | 13.1 | 109 | > 100000 | 12.9 | 23.4 | 163 | 13.6 | 16.4 | 10.2 | 18.7 | 108 |  | Retention time (Rattus norvegicus [4]): 117 s; Acquisition time (Rattus norvegicus [5]): 12.1 s; Acquisition time (Mus musculus [11]): 17.5 s; Retention time (Mus musculus [13]): 73.9 s; Acquisition time (Mus musculus [21]): 14.2 s
2 | CCCn1c(=O)c2nc(C3CCCC3)[nH]c2n(CCc2ccc(N)cc2)c1=O |  | 160 | 152 s and 177 s |  | 20.8 | 11.1 | 255 | 430 |  | 113 |  |  | 21.2 | 12.3 |  |  | 151 | Acquisition time (Rattus norvegicus [22]): 25.7 s; Acquisition time (Rattus norvegicus [23]): 18.3 s; Locomotor activity (Mus musculus [24]): 6224 Counts; Acquisition time (Mus musculus [6]; 1.25 mg/kg): 28.7 s and 23.1 s; Locomotor activity (Mus musculus [25]): 6693 Counts; Locomotor activity (Mus musculus [26]): 5867 Counts; Retention time (Rattus norvegicus [27]): 255 s; Retention time (Mus musculus [28]): 318 s; Retention time (Rattus norvegicus [29]): 384 s; Acquisition time (Mus musculus [30]): 23.5 s; Ki (Adenosine A2 receptor [31]): 2000 nM
3 | CC(C)Cn1c(=O)n(C)c(=O)c2[nH]c(C(C3CC3)C3CC3)nc21 | 359 | 17.6 | 349 s | 19.9 | 7.1 |  |  |  | 12.5 |  | 22.8 | 9.6 | 25.7 | 11.5 | 171 | 9.9 | 17.6 | Acquisition time (Mus musculus [33]): 26.4 s; Acquisition time (Rattus norvegicus [34]): 10.1 s; Acquisition time (Rattus norvegicus [35]): 8.3 s; Retention time (Rattus norvegicus [36]): 14.1 s; Retention time (Mus musculus [37]): 370 s; Acquisition time (Rattus norvegicus [38]): 11.8 s; Retention time (Rattus norvegicus [39]): 50.9 s
4 | CCCn1c(=O)c2[nH]c(C3CCCC3)nc2n(CCc2ccc(N)cc2)c1=O |  |  |  |  |  |  |  |  |  |  |  |  |  |  |  |  |  | Ki (Adenosine receptor A1): 5.6 nM; Ki [40]: 0.23 nM
